Results as given in patent US20060035889A1, “Treatment for methamphetamine addiction and reduction of methamphetamine use using serotonin antagonists” (priority 2004, published 2006).

Tested on: ventral pallidal neurons
Assay: Electrophysiology of ventral pallidal neurons, i.v. METH dose-response in chloral hydrate-anesthetized rats
Format: in vivo, rat
Procedure: Based on the biochemical results and because the ventral pallidum contains one of the highest concentrations of 5-HT in the brain, electrophysiological evaluations of this region in rats behaviorally sensitized to METH were conducted (with a 5-day once daily treatment of 2.5 mg/kg). The acute challenge was intravenously administered METH (via a tail vein cannula) as previously used by T. C. Napier's lab ^e.g., [34] where the drug is given in a cumulative dosing fashion such that each dose, administered in 2 min-intervals, essentially doubles the previous dose. METH was tested using a range of 0.06-4.0 mg/kg in saline vehicle. […] Moreover, this approach establishes if systemic administration of METH, in doses that include those producing behavioral sensitization, are sufficient promote sensitized cellular responding and thus allows for direct comparisons of cellular responding to behavioral outcomes. After a 3-day withdrawal, the ability of intravenously administered METH or 1-(2,5-dimethoxy-4-iodophenyl)-2-aminopropane (DOI) to increase ventral pallidal cell firing was enhanced in chloral hydrate-anesthetized rats, as shown by a leftward shift in the dose-response curve with a […] and an increase in response efficacy for both agonists (FIG. 16) and this occurred without any changes in the portion of neurons showing a rate increase or decrease to the acute METH challenge.
Electrophysiological assessment of the ventral pallidum was also conducted 30 days after repeated METH. […] For each experiment, an i.v. METH dose-response curve (METH was tested using a range of 0.06-2.0 mg/kg in saline vehicle) was generated for one ventral pallidal neuron per rat at 30 days withdrawal from repeated METH. Based on the analysis of curves where there was an excitatory effect of i.v. METH on ventral pallidal neurons (171 animals), there was a diminished excitatory effect of i.v. METH in the ventral pallidum of rats that were pretreated with METH only. This is illustrated by both the curves and corresponding Emax data in FIG. 17. This decrease only at long-term withdrawal mirrors the reduction seen in pallidal pCREB only after 14, but not at 3 day withdrawal from repeated METH (see Example III).

SMILES: CN1CCN2c3ncccc3Cc3ccccc3[C@@H]2C1 (racemic) [mirtazapine, 1,2,3,4,10,14b-hexahydro-2-methyl-pyrazino[2,1-a]pyrido[2,3-c]benzazepine]
- Emax of Firing Rate Increases of Acute Meth (METH days 1-5, then antagonist, tested 31 days after last METH): 251% ± 21% (n = 5)
- Emax of Firing Rate Increases of Acute Meth (Sal days 1-5, then antagonist, tested 31 days after last injection): 240% ± 44% (n = 5)
- effect of repeated METH on response of ventral pallidal neurons to acute METH challenge (after 30 days withdrawal): reversal
